# Values of other authors as cited in patent publication US12383538B2, “Use of mTOR inhibitors for prevention of intestinal polyp growth and cancer” (priority 2013, dated 2025).
# System: colorectal adenomas
# Details: adults with FAP, 6-month trial
structure (smiles),measurement,value
Cc1ccc(-c2cc(C(F)(F)F)nn2-c2ccc(S(N)(=O)=O)cc2)cc1 [celecoxib],tolerability,well tolerated
